A word on the EC50: it is the concentration that produces a half-maximal response. The IC50 is the concentration that inhibits the measured activity by half.

The structures appear in SMILES notation. Where two headings read alike, the source gives them in different places. Bounds are passed on as bounds.

Assay [1] deals with DUX4. The experiment in a line: high-content immunocytochemistry assay of endogenous DUX4 expression in differentiating primary FSHD myotubes. Conditions: for EC50: Homo sapiens, Myotube. Type of assay: cell-based, human. From the text: A quantitative assay readout was developed based on script-based image analysis. […] To analyse the images, an automated script was developed, enabling the detection of nuclei, myotube borders and DUX4 signals, with the script also detecting artefacts to reduce false positive signals. The script enabled multiple validated readouts including the number of DUX4 positive nuclei and nuclei clusters, the fusion index, myotube area, myotube width and myotube skeleton length (see FIG. 2). Additionally, the total nuclei count was included as a measure of cell loss or compound toxicity.
A compound library containing approximately 5000 annotated compounds was screened in the high-content assay. For this purpose, primary myoblasts were seeded in 384 well plates after which the growth medium was replaced with differentiation medium. After 3 days of differentiation, cells were treated with library compounds (in duplicate on different screening plates) for 15 h, after which they were fixed and stained with antibodies against DUX4, antibodies against myosin heavy chain (MHC), and with DAPI (4′,6-diamidino-2-phenylindole). Script-based analysis provided readouts for DUX4 expression (count of DUX4-positive nuclei or DUX4 intensity) and for potential toxicity (fusion index and nuclei count).
Compounds were incubated with primary FSHD cells for 15 hours, as indicated by the arrow in FIG. 4A.
Compounds are administered either 15 h before fixation, resembling the original screening protocol, or 72 h before fixation (grey arrow). In the latter case, compounds are present during the whole differentiation process.

The target in assay [2] is CK1α (Homo sapiens, UniProt P48729). The assay can be described thus: CK1α inhibition IC50. It is filed as biochemical.
Chain of CK1α (P48729 whole entry): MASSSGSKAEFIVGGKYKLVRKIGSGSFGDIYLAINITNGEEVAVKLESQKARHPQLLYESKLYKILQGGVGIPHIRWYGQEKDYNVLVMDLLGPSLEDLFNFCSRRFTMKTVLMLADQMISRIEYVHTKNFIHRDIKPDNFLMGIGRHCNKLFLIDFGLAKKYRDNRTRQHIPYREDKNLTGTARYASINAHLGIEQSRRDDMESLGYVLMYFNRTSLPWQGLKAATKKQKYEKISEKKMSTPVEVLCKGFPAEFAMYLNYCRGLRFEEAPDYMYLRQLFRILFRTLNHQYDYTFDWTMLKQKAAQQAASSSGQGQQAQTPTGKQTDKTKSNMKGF
Assay [3] deals with CK1δ (Homo sapiens, UniProt P48730). The assay can be described thus: CK1δ inhibition IC50. It is filed as biochemical.
Chain of CK1δ (P48730 whole entry): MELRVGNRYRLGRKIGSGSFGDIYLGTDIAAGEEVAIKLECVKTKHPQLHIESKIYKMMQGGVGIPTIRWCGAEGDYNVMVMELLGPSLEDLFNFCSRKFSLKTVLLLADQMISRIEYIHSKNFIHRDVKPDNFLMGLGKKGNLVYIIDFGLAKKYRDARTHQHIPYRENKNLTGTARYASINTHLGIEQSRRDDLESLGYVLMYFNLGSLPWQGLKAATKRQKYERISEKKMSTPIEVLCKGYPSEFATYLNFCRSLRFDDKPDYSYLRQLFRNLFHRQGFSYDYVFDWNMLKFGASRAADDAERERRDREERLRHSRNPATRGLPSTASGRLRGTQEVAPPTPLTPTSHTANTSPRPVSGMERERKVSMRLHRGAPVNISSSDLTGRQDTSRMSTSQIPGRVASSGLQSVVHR
The target in assay [4] is p38α (Homo sapiens, UniProt Q16539). The experiment in a line: p38α inhibition IC50. Type of assay: biochemical.
Chain of p38α (Q16539 whole entry): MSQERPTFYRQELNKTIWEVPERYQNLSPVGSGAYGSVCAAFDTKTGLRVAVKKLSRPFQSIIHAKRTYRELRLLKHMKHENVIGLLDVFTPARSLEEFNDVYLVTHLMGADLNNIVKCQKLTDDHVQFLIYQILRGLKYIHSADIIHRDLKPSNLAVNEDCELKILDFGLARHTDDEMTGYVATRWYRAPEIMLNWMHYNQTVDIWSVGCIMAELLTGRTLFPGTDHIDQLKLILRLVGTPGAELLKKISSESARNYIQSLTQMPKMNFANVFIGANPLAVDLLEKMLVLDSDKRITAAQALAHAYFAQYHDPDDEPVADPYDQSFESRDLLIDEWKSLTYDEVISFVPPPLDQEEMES
Setting [5] is: 72 h, Table 4, 72 h treatment protocol, read-out: DUX4 EC50.
Setting [6] is: 72 h, Table 6, 72 h treatment protocol, read-out: DUX4 EC50.
Where [7] appears, read: Table 7, p38 compounds, read-out: IC50 CK1a.

For `Fc1ccc(-c2nc3ccc(N4CCNCC4)nn3c2-c2ccnnc2)cc1` [Nr. 22], the EC50 in assay [1] (setting [5]) and in assay [1] (setting [6]) was 1100 nM each time. For the same molecule, the IC50 in assay [2] (Table 4, read-out: CK1 a IC50) came out at 194 nM; in assay [2] (Table 6, read-out: IC50 CK1α), 194 nM; in assay [3] (Table 4, read-out: CK1 d IC50), 57.7 nM; in assay [3] (Table 6, read-out: IC50 CK1δ) it was 58 nM; in assay [4] (Table 4, read-out: p38a IC50), 411 nM; in assay [4] (Table 6, read-out: IC50 p38α) it was 411 nM.
On to `CC1(C)CN(c2ccc3nc(-c4ccccc4)c(-c4ccncc4)n3n2)CCN1` [Nr. 10], for which the half-maximal effective concentration (EC50) in assay [1] (setting [5]) and in assay [1] (setting [6]) was 10 nM throughout.
For `Fc1ccc(-c2nc3sc(N4CCNCC4)nn3c2-c2ccncc2)cc1` [Nr. 24], the EC50 in assay [1] (setting [5]) and in assay [1] (setting [6]) was 480 nM in each case. The IC50 in assay [2] (Table 4, read-out: CK1 a IC50) is 331 nM; in assay [2] (Table 6, read-out: IC50 CK1α), 331 nM; in assay [3] (Table 4, read-out: CK1 d IC50) it was 55.7 nM; in assay [3] (Table 6, read-out: IC50 CK1δ), 58 nM; in assay [4] (Table 4, read-out: p38a IC50) it was 21.7 nM; in assay [4] (Table 6, read-out: IC50 p38α) it was 22 nM.
Turning to `Fc1ccc(-c2nc3ccc(N4CCOCC4)nn3c2-c2ccncc2)cc1` [Nr. 23], the EC50 in assay [1] (setting [5]) and in assay [1] (setting [6]) was 2400 nM throughout. In addition, the IC50 in assay [2] (Table 4, read-out: CK1 a IC50) is more than 10000 nM; in assay [2] (Table 6, read-out: IC50 CK1α), more than 10000 nM; in assay [3] (Table 4, read-out: CK1 d IC50) it was 2090 nM; in assay [3] (Table 6, read-out: IC50 CK1δ) it was 2090 nM; in assay [4] (Table 4, read-out: p38a IC50) it was 1250 nM; in assay [4] (Table 6, read-out: IC50 p38α), 1250 nM.
`Nc1nccc(-c2c(-c3ccc(F)cc3)ncn2C2CCCCC2)n1` [PF-670462, reference compound]: in assay [1] (72 h treatment), the “effect on DUX4” value is “repress DUX4”. In addition, the EC50 in assay [1] (setting [5]) and in assay [1] (setting [6]) was 760 nM each time. In addition, the IC50 is 32.4 nM in assay [4] (Table 3, read-out: p38a IC50) and 32.4 nM in assay [4] (Table 4, read-out: p38a IC50).
Turning to `OCCC#Cc1nc(-c2ccc(F)cc2)c(-c2ccncc2)n1CCCc1ccccc1` [RWJ 67657, reference compound], the EC50 in assay [1] (setting [5]) and in assay [1] (setting [6]) was 780 nM each time. For the same molecule, the IC50 in assay [2] (Table 4, read-out: CK1 a IC50) worked out at 1830 nM; in assay [2] (Table 6, read-out: IC50 CK1α), 1830 nM; in assay [3] (Table 4, read-out: CK1 d IC50) it was 115 nM; in assay [3] (Table 6, read-out: IC50 CK1δ), 115 nM; in assay [4] (Table 4, read-out: p38a IC50), 15.9 nM; in assay [4] (Table 6, read-out: IC50 p38α) it was 16 nM.
As for `CN1CCN(c2ccc3nc(-c4ccccc4)c(-c4ccncc4)n3n2)CC1` [Nr. 11], the EC50 in assay [1] (setting [5]) and in assay [1] (setting [6]) was 250 nM in each case.
`Cn1cc(-c2ccnc(N)n2)c(-c2ccc(F)cc2)n1` [Nr. 18]: the EC50 in assay [1] (setting [5]) and in assay [1] (setting [6]) was 8200 nM in each case. Further, the IC50 in assay [2] (Table 4, read-out: CK1 a IC50) amounted to 636 nM; in assay [2] (Table 6, read-out: IC50 CK1α), 636 nM; in assay [3] (Table 4, read-out: CK1 d IC50), 46.5 nM; in assay [3] (Table 6, read-out: IC50 CK1δ), 46 nM; in assay [4] (Table 4, read-out: p38a IC50) it was 312 nM; in assay [4] (Table 6, read-out: IC50 p38α), 312 nM.
For `Fc1ccc(-c2nc3ccc(N4CCC(N5CCCC5)CC4)nn3c2-c2ccncc2)cc1` [Nr. 14], the EC50 in assay [1] (setting [5]) and in assay [1] (setting [6]) was 390 nM throughout. Further, the IC50 in assay [2] (Table 4, read-out: CK1 a IC50) came out at 270 nM; in assay [2] (Table 6, read-out: IC50 CK1α), 270 nM; in assay [3] (Table 4, read-out: CK1 d IC50), 45 nM; in assay [3] (Table 6, read-out: IC50 CK1δ) it was 45 nM; in assay [4] (Table 4, read-out: p38a IC50), 42 nM; in assay [4] (Table 6, read-out: IC50 p38α), 42 nM.
For `CCCNC(=O)c1cn2ncnc(Nc3cc(C(=O)NC4CC4)ccc3C)c2c1C` [BMS-582949, reference compound], the IC50 in assay [2] (setting [7]) was more than 10000 nM.
Turning to `Cn1c(=O)c(Oc2ccc(F)cc2F)cc2cnc(NC(CCO)CCO)nc21` [Pamapimod, reference compound], in assay [2] (setting [7]), the IC50 was more than 10000 nM.
As to `Cc1c(F)cc(C(=O)NC2CC2)cc1-c1ccc(C(=O)NCC(C)(C)C)cn1` [Losmapimod, reference compound], in assay [1] (added during the last 15 h of differentiation), the “effect on DUX4” value is “did not show any effect”. Further, in assay [2] (setting [7]), the IC50 is more than 10000 nM.
For `Fc1cccc(-n2cnc3c(NCc4nc5ccc(F)c(F)c5[nH]4)nc(N4CCOCC4)nc32)c1` [SR-3029, reference compound], the EC50 in assay [1] (15 h, read-out: DUX4 EC50) was 50 nM; in assay [1] (15 h, read-out: EC50 for DUX4 repression), 50 to 120 nM. Further, the IC50 in assay [4] (Table 3, read-out: p38a IC50) is more than 1000 nM.
Take `Cc1ccc(-n2nc(C(C)(C)C)cc2NC(=O)NCc2cc(F)ccc2Oc2ccc3c(cnn3CCO)c2)cc1` [pexmetinib, reference compound]: the IC50 in assay [2] (setting [7]) was more than 10000 nM.
With `CNC(=O)c1ccc(C)c(-n2c(C)cc(OCc3ccc(F)cc3F)c(Br)c2=O)c1` [PH797804, reference compound], the concentration for half-maximal inhibition (IC50) in assay [2] (setting [7]) was more than 10000 nM.

The values above are taken from patent US20220226340A1, “CASEIN KINASE 1 INHIBITORS FOR USE IN THE TREATMENT OF DISEASES RELATED TO DUX4 EXPRESSION SUCH AS MUSCULAR DYSTROPHY AND CANCER” (Facio Intellectual Property B.V., priority 2019, published 2022).
